In patent publication US20030225007A1, “Sulfonamide derivatives of 3-substituted imidazol[1,2-d]-1,2,4-thiadiazoles and 3-substituted-[1,2,4] thiadiazolo[4,5-a] benzimidazole as inhibitors of fibrin cross-linking and transglutaminases” (Apotex Inc., priority 2002, published 2003):

Molecular target: T1, Factor XIIIa (activated FXIII) (Homo sapiens, UniProt P00488)
T1 construct: purchased Enzyme Research Laboratories, Ltd
T1 sequence (P00488 39-732 limits assumed): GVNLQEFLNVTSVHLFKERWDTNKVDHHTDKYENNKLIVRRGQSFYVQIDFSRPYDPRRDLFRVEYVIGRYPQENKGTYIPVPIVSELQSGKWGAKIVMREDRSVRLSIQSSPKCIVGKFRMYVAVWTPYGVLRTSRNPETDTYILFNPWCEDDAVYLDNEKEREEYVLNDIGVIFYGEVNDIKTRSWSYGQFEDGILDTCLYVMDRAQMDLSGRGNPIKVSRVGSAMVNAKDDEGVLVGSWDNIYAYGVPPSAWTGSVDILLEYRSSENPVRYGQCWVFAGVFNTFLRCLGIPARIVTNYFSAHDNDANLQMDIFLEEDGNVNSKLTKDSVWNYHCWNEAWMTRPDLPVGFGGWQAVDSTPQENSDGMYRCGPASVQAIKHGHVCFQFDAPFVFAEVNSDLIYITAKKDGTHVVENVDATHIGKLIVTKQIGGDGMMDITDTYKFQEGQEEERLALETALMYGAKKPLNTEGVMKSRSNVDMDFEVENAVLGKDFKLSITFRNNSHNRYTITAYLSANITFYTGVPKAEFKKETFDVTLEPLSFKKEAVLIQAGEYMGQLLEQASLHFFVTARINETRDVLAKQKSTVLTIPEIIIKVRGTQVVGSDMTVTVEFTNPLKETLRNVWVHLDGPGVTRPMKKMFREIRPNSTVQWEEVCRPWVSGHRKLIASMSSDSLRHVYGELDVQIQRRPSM
Experiment: Inactivation of purified Factor XIIIa (monodansylcadaverine incorporation into dimethylcasein, fluorescence)
Type: biochemical
Settings: purified Factor XIIIa; method of Kitz and Wilson; read-out: Second order rate constant for inactivation
Procedure: FXIII (0.5 mg/mL, Enzyme Research Laboratories, Ltd.) in 50 mM Tris-HCl pH 7.5 containing 100 mM NaCl, 40 mM CaCl2, 1 mM EDTA and 0.1% poly(ethylene glycol) (app. MW=8000) was activated by incubation with 10 NIH units/mL of human thrombin (Calbiochem) at 37° C. for 20 min. Thrombin was quenched with 20 NIH units/mL of hirudin from Leech (Sigma).
Inhibitor solution in DMSO (14 μL) was added to 120 μL of 250 mM Tris-Cl pH 7.5 containing 40 mM CaCl2 and 1 mM EDTA and the solution was incubated at 37° C. for two minutes. Activated FXIII (5 μL, 0.5 mg/mL) was added and the mixture was incubated at 37° C. for 5 min.
An assay mixture composed of 50 mM Tris-Cl pH 8.0, 10 mM CaCl2, 1 mM EDTA, 0.1% poly(ethylene glycol) (app. MW=1000) and 20 μM monodansylcadaverine was prepared in a spectrofluorometric cell in a final volume of 2880 μL. Dimethylcasein (8 μL, 1% in 50 mM sodium phosphate pH 7.5) was added and the solution was incubated at 37° C. for a few minutes. To assay the residual enzyme activity, 120 μL of the solution containing the enzyme and the inhibitor was transferred to the assay mixture. The covalent incorporation of monodansylcadaverine into casein was monitored by an increase in fluorescence at λexc=360 nm and λem=500 nm as previously described (Curtis, C. G.; Lorand, L. Methods Enzymol. 1976, 45, 177-191). To determine uninhibited enzyme activity, DMSO was used in place of inhibitor solution in the above assay. IC50 were determined by plotting the percent of remaining enzyme activity against logarithm of inhibitor concentration. IC50 is defined here as an inhibitor concentration resulting in 50% enzyme inactivation after 5-min incubation of the enzyme with the inhibitor in the absence of the substrate. Second order rate constants for inactivation were determined using method described by Kitz and Wilson (Kitz, R.; Wilson, I. J. Biol. Chem. 1962, 237, 3245).

| kinact/KI [M⁻¹ s⁻¹] | Compound |
| --- | --- |
| 13000 | O=S(=O)(NCCCCCCNc1nsc2nccn12)c1ccc(Br)cc1Br [2,4-dibromo-N-[6-(imidazo[1,2-d][1,2,4]thiadiazol-3-ylamino)hexyl]benzenesulfonamide] |

Same assay, conditions: purified activated FXIII; 50% enzyme inactivation after 5-min incubation with inhibitor at 37° C. in the absence of substrate; read-out: FXIIIa (IC50 in μM)

| Compound | IC50 [µM] |
| --- | --- |
| 4-benzyl-{N^ε-imidazo[1,2-d][1,2,4]thiadiazol- 3-yl-N^α-[(4- methylphenyl)sulfonyl]lysyl}piperidine | 5.6 |
| NC(=O)CN(CCCCCCNc1nsc2nccn12)S(=O)(=O)c1cccc2ccccc12 [1 / NH2 / 1-naphthyl, N^2-[6-(imidazo[1,2-d][1,2,4]thiadiazol-3-ylamino)hexyl]-N^2-(1-naphthylsulfonyl)glycinamide] | 6 |
| CCOC(=O)CN(CCCCCCNc1nsc2nccn12)S(=O)(=O)c1cccc2ccccc12 [1 / OEt / 1-naphthyl, Ethyl N-[6-(imidazo[1,2-d][1,2,4]thiadiazol-3-ylamino)hexyl]-N-(1-naphthylsulfonyl) glycinate] | 7.4 |
| O=C(O)CN(CCCCCCNc1nsc2nccn12)S(=O)(=O)c1cccc2ccccc12 [1 / OH / 1-naphthyl, N-[6-(imidazo[1,2-d][1,2,4]thiadiazol-3-ylamino)hexyl]-N-(1-naphthylsulfonyl)glycine] | 6.8 |
| NC(=O)CCN(CCCCCCNc1nsc2nccn12)S(=O)(=O)c1ccc(F)cc1F [2 / NH2 / 2-F-4-F-Ph, N^3-[(2,4-difluorophenyl)sulfonyl]-N^3-[6-(imidazo[1,2-d][1,2,4]thiadiazol-3-ylamino)hexyl]-β-alaninamide] | 8.9 |
| CCOC(=O)CCN(CCCCCCNc1nsc2nccn12)S(=O)(=O)c1ccc(F)cc1F [2 / OEt / 2-F-4-F-Ph, Ethyl N-[(2,4-difluorophenyl)sulfonyl]-N-[6-(imidazo[1,2-d][1,2,4]thiadiazol-3-ylamino)hexyl]-β-alaninate] | 6.8 |
| CNC(=O)c1ccccc1S(=O)(=O)NCCCCCCNc1nsc2nccn12 [2-CONHMe-Ph, 2-({[6-(imidazo[1,2-d][1,2,4]thiadiazol-3-ylamino)hexyl]amino}sulfonyl)-N-methylbenzamide] | 13.8 |
| O=C(O)c1ccccc1S(=O)(=O)NCCCCCCNc1nsc2nccn12 [2-COOH-Ph, 2-carboxy-N-[6-(imidazo[1,2-d][1,2,4]thiadiazol-3-ylamino)hexyl]benzenesulfonamide] | 6.8 |
| O=S(=O)(NCCCCCCNc1nsc2nccn12)c1c(F)ccc(Br)c1F [2-F-3-Br-6-F-Ph, 3-bromo-2,6-difluoro-N-[6-(imidazol[1,2-d][1,2,4]thiadiazol-3-ylamino)hexyl]benzenesulfonamide] | 2.1 |
| COc1cc(C)c(S(=O)(=O)NCCCCCCNc2nsc3nccn23)c(C)c1C [2-Me-3-Me-4-OMe-6-Me-Ph, N-[6-(imidazo[1,2-d][1,2,4]thiadiazol-3-ylamino)hexyl]-4-methoxy-2,3,6-trimethylbenzenesulfonamide] | 14 |
| COc1cc(C)ccc1S(=O)(=O)NCCCCCCNc1nsc2nccn12 [2-OMe-4-Me-Ph, N-[6-(imidazol[1,2-d][1,2,4]thiadiazol-3-ylamino)hexyl]-2-methoxy-4-methylbenzenesulfonamide] | 24 |
| COc1ccc(OC)c(S(=O)(=O)NCCCCCCNc2nsc3nccn23)c1 [2-OMe-5-Ome-Ph, 2,5-dimethoxy-N-[6-(imidazo[1,2-d][1,2,4]thiadiazol-3-ylamino)hexyl]benzenesulfonamide] | > 5 |
| NC(=O)CCCN(CCCCCCNc1nsc2nccn12)S(=O)(=O)c1cccc2ccccc12 [3 / NH2 / 1-naphthyl, 4-[[6-(imidazo[1,2-d][1,2,4]thiadiazol-3-ylamino)hexyl](1-naphthylsulfonyl)amino]butanamide] | 8.6 |
| O=C(O)c1cccc(S(=O)(=O)NCCCCCCNc2nsc3nccn23)c1 [3-COOH-Ph, 3-carboxy-N-[6-(imidazo[1,2-d][1,2,4]thiadiazol-3-ylamino)hexyl]benzenesulfonamide] | 13.7 |
| O=C(O)c1ccc(S(=O)(=O)NCCCCCCNc2nsc3nccn23)cc1 [4-COOH-Ph, 4-carboxy-N-[6-(imidazo[1,2-d][1,2,4]thiadiazol-3-ylamino)hexyl]benzenesulfonamide] | 11.4 |

Results, then the compound that gave them:

| IC50 [µM] | Compound |
| --- | --- |
| 1.3 | Cc1cc(C)c(S(=O)(=O)NCCCCCCNc2nsc3nccn23)c(C)c1 [2,4,6-TriMe-Ph, N-[6-(imidazo[1,2-d][1,2,4]thiadiazol-3-ylamino)hexyl]-2,4,6-trimethylbenzenesulfonamide] |
| 2.7 | N#Cc1ccccc1S(=O)(=O)NCCCCCCNc1nsc2nccn12 [2-CN-Ph, 2-cyano-N-[6-(imidazo[1,2-d][1,2,4]thiadiazol-3-ylamino)hexyl]benzenesulfonamide] |
| 3 | NC(=O)c1ccccc1S(=O)(=O)NCCCCCCNc1nsc2nccn12 [2-CONH2-Ph, 2-({[6-(imidazo[1,2-d][1,2,4]thiadiazol-3-ylamino)hexyl]amino}sulfonyl)benzamide] |
| 3.2 | COC(=O)c1ccccc1S(=O)(=O)NCCCCCCNc1nsc2nccn12 [2-COOMe-Ph, N-[6-(imidazo[1,2-d][1,2,4]thiadiazol-3-ylamino)hexyl]2-methoxycarbonylbenzenesulfonamide] |
| 0.6 | O=S(=O)(NCCCCCCNc1nsc2nccn12)c1ccc(F)cc1Cl [2-Cl-4-F-Ph, 2-chloro-4-fluoro-N-[6-(imidazo[1,2-d][1,2,4]thiadiazol-3-ylamino)hexyl]benzenesulfonamide] |
| 0.95 | Cc1cc(S(=O)(=O)NCCCCCCNc2nsc3nccn23)c(C)cc1Cl [2-Me-4-C1-5-Me-Ph, 4-chloro-2,5-dimethyl-N-[6-(imidazol[1,2-d][1,2,4]thiadiazol-3-ylamino)hexyl]benzenesulfonamide] |
| 0.77 | O=[N+]([O-])c1cc(C(F)(F)F)ccc1S(=O)(=O)NCCCCCCNc1nsc2nccn12 [2-NO2-4-CF3-Ph, N-[6-(imidazo[1,2-d][1,2,4]thiadiazol-3-ylamino)hexyl]-2-nitro-4-trifluorobenzenesulfonamide] |
| 0.42 | O=S(=O)(NCCCCCCNc1nsc2nccn12)c1ccc(Br)cc1OC(F)(F)F [2-OCF3-4-Br, 4-bromo-N-[6-(imidazo[1,2-d][1,2,4]thiadiazol-3-ylamino)hexyl]-2-(trifluoromethoxy)benzenesulfonamide] |
| 3.7 | COc1ccc(Br)cc1S(=O)(=O)NCCCCCCNc1nsc2nccn12 [2-OMe-5-Br-Ph, 5-bromo--N-[6-(imidazo[1,2-d][1,2,4]thiadiazol-3-ylamino)hexyl]-2-methoxybenzenesulfonamide] |
| 1.3 | O=S(=O)(NCCCCCCNc1nsc2nccn12)c1ccc2ccccc2c1 [2-naphthyl, N-[6-(imidazo[1,2-d][1,2,4]thiadiazol-3-ylamino)hexyl]naphthalene-2-sulfonamide] |
| 4.7 | O=S(=O)(NCCCCCCNc1nsc2nccn12)c1cccc(C(F)(F)F)c1 [3-CF3-Ph, N-[6-(imidazo[1,2-d][1,2,4]thiadiazol-3-ylamino)hexyl]-3-trifluoromethylbenzenesulfonamide] |
| 0.93 | O=S(=O)(NCCCCCCNc1nsc2nccn12)c1ccc(Br)cc1 [4-Br-Ph, 4-bromo-N-[6-(imidazo[1,2-d][1,2,4]thiadiazol-3-ylamino)hexyl]benzenesulfonamide] |
| 1.6 | N#Cc1ccc(S(=O)(=O)NCCCCCCNc2nsc3nccn23)cc1 [4-CN-Ph, 4-cyano-N-[6-(imidazo[1,2-d][1,2,4]thiadiazol-3-ylamino)hexyl]benzenesulfonamide] |
| 1.4 | COc1ccc(S(=O)(=O)NCCCCCCNc2nsc3nccn23)cc1 [4-OMe-Ph, N-[6-(imidazo[1,2-d][1,2,4]thiadiazol-3-ylamino)hexyl]-4-methoxybenzenesulfonamide] |
